What is called IC50 is the concentration needed to halve the response being measured. Read a high IC50 as weaker potency in that assay.

Counter-ions that a name gives are not always drawn.

This test deals with T1, human renin (Homo sapiens, UniProt P00797).
T1 sequence (P00797 67-406): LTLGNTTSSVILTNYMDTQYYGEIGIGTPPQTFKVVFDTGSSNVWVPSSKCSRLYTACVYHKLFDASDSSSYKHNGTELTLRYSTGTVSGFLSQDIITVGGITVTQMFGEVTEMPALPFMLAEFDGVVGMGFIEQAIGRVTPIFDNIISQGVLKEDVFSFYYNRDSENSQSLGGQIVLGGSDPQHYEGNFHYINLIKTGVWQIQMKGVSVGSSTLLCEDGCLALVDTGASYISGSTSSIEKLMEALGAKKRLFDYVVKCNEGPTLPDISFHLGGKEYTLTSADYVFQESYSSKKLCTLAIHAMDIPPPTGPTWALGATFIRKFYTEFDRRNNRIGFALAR
Briefly: In vitro test with pure human renin. It counts as biochemical. As to conditions: human tetradecapeptide renin substrate (hTD), pH 7.4, three hours at 37° C., angiotensin I via RIA. How it is done:
In vitro test with pure human renin
The test is carried out in Eppendorf test tubes. The incubation mixture consists of (1) 100 μl of human renin in buffer A (0.1M sodium phosphate solution, pH 7.4, containing 0.1% bovine serum albumin, 0.1% sodium azide and 1 mM ethylenediaminetetraacetic acid), sufficient for a renin activity of 2-3 ng of angiotensin I/ml/hr.; (2) 145 μl of buffer A; (3) 30 μl of 10 μM human tetradecapeptide renin substrate (hTD) in 10 mM hydrochloric acid; (4) 15 μl of dimethyl sulphoxide with or without inhibitor and (5) 10 μl of a 0.03 molar solution of hydroxyquinoline sulphate in water.
The samples are incubated for three hours at 37° C. or 4° C. in triplicate. 2×100 μl samples per experimental test tube are used in order to measure the production of angiotensin I via RIA (standard radioimmunoassay; clinical assay solid phase kit). Cross reactivities of the antibody used in the RIA are: angiotensin I 100%; angiotensin II 0.0013%; hTD (angiotensin I-Val-Ile-His-Ser-OH) 0.09%. The production of angiotensin I is determined by the difference between the experiment at 37° C. and that at 4° C.
The following controls are carried out:
(a) Incubation of hTD samples without renin and without inhibitor at 37° C. and 4° C. The difference between these two values gives the base value of the angiotensin I production.
(b) Incubation of hTD samples with renin, but without inhibitor at 37° C. and 4° C. The difference between these values gives the maximal value of angiotensin I production.
In each sample the base value of the angiotensin I production is subtracted from the angiotensin I production which is determined. The difference between the maximal value and the base value gives the value of the maximal substrate hydrolysis (=100%) by renin.
The results are given as IC50 values which denote that concentration of the inhibitor at which the enzymatic activity is inhibited by 50%. The IC50 values are determined from a linear regression curve from a logit-log plot.
The molecule `CC(C)(CN)S(=O)(=O)C[C@@H](Cc1ccccc1)C(=O)N[C@@H](Cc1c[nH]cn1)C(=O)N[C@@H](CC1CCCCC1)[C@@H](O)[C@@H](O)C1CC1` [A, (S)-α-[(S)-α-[[[(2-Amino-1,1-dimethylethyl)sulphonyl]methyl]hydrocinnamamido]-N-[(1S,2R,3S)-1-(cyclohexylmethyl)-3-cyclopropyl-2,3-dihydroxypropyl]imidazole-4-propionamidedihydrochloride] showed an IC50 of 1.8 nM.
In turn, `CC(C)(C)S(=O)(=O)C[C@@H](Cc1ccccc1)C(=O)N[C@@H](Cc1c[nH]cn1)C(=O)N[C@@H](CC1CCCCC1)[C@@H](O)[C@@H](F)C1CC1` [E, (S)-α-[(S)-α-[(tert-Butylsulphonyl)methyl]hydrocinnamamido]-N-[(1S,2R,3S)-1-(cyclohexylmethyl)-3-cyclopropyl-3-fluoro-2-hydroxypropyl]imidazole-4-propionamide] returned an IC50 of 2.3 nM.
Then `CC(C)(N)CS(=O)(=O)C[C@@H](Cc1ccccc1)C(=O)N[C@@H](Cc1c[nH]cn1)C(=O)N[C@@H](CC1CCCCC1)[C@@H](O)[C@@H](O)C1CC1` [B, (S)-α-[(S)-α-[[(2-Amino-2-methylpropyl)sulphonyl]methyl]hydrocinnamamido]-N-[(1S,2R,3S)-1-(cyclohexylmethyl)-3-cyclopropyl-2,3-dihydroxypropyl]imidazole-4-propionamide diacetate], with 17 nM; and `O=C(N[C@@H](Cc1c[nH]cn1)C(=O)N[C@@H](CC1CCCCC1)[C@@H](O)[C@@H](O)C1CC1)c1cc2ccccc2[nH]1` [F, N-[(S)-1-[[(1S,2R,3S)-1-(Cyclohexylmethyl)-3-cyclopropyl-2,3-dihydroxypropyl]carbamoyl]-2-imidazol-4-ylethyl]indole-2-carboxamide], with 21 nM.
Turning to `O=C(N[C@@H](CC1CCCCC1)[C@@H](O)[C@@H](O)C1CC1)[C@H](Cc1c[nH]cn1)NC(=O)[C@H](Cc1ccccc1)OC(=O)N1CCCCC1` [D, (S)-α-[[(S)-1-[[(1S,2R,3S)-1-(Cyclohexylmethyl)-3-cyclopropyl-2,3-dihydroxypropyl]carbamoyl]-2-imidazol-4-ylethyl]carbamoyl]phenethyl 1-piperidinecarboxylate], half-maximal inhibition (IC50) was put at 1.2 nM.

The values above are taken from US5688946A, “Amino acid derivatives having renin inhibiting activity” (Hoffmann La Roche Inc., priority 1989, dated 1997).
